Results taken from ChEMBL document CHEMBL5113511, “Discovery of Small-Molecule Degraders of the CDK9-Cyclin T1 Complex for Targeting Transcriptional Addiction in Prostate Cancer” (J Med Chem, 2022).
The source made the active and inactive calls.

Tests used:
[1] = biological target: Cyclin-dependent kinase 6 (Homo sapiens) (UniProt Q00534); assay: Induction of CDK6 degradation in human 22Rv1 cells assessed as downregulation of CDK6 level at 3 uM measured after 12 hrs by DIA-based proteomics analysis; type: cell-based
[2] = biological target: T1, CDK9/cyclin T1 (Homo sapiens) (UniProt O60563+P50750); assay: Induction of CDK9/Cyclin T1 degradation in human 22Rv1 cells assessed as downregulation of KLK15 gene expression at 2 uM incubated for 24 hrs by RNA-Seq based analysis; type: cell-based
[3] = biological target: T1, CDK9/cyclin T1 (Homo sapiens); assay: Induction of CDK9/Cyclin T1 degradation in human 22Rv1 cells assessed as decrease in cyclin D1 protein expression at 3 uM measured for 36 hrs by DIA-based proteomics analysis; type: cell-based
[4] = biological target: T2, Cyclin-dependent kinase 9 (Homo sapiens, UniProt P50750); assay: Induction of HyT-mediated degradation of CDK9 in human 22Rv1 cells incubated for 24 hrs by immunoblot analysis; type: cell-based
[5] = biological target: T2, Cyclin-dependent kinase 9; assay: Induction of HyT-mediated degradation of CDK9 in human 22Rv1 cells assessed as reduction in CDK9 protein level at 3 uM measured after 24 to 48 hrs by immunoblot analysis; type: cell-based; conditions: time 24-48 hrs
[6] = biological target: Glycogen synthase kinase-3 alpha (Homo sapiens) (UniProt P49840); assay: Induction of Hyt-mediated degradation of GSK3A in human 22Rv1 cells assessed as downregulation of GSK3A protein level at 2 uM incubated for 24 hrs by DIA-based proteomics analysis; type: cell-based
[7] = biological target: T1, CDK9/cyclin T1 (Homo sapiens); assay: Induction of CDK9/Cyclin T1 degradation in human 22Rv1 cells assessed as downregulation of CCNE2 gene expression at 2 uM incubated for 24 hrs by RNA-Seq based analysis; type: cell-based
CWR22R [8] = assay: Antiproliferative activity against human 22Rv1 cells assessed as reduction in cell viability measured after 5 days by CellTiter-Glo assay; type: functional, cell-based; conditions: 22Rv1, 120 h
[9] = biological target: T2, Cyclin-dependent kinase 9; assay: Induction of HyT-mediated degradation of CDK9 in human 22Rv1 cells at 3 uM measured after 5 to 18 hrs by immunoblot analysis; type: cell-based; conditions: time 5-18 hrs
[10] = biological target: T1, CDK9/cyclin T1 (Homo sapiens); assay: Induction of CDK9/Cyclin T1 degradation in human 22Rv1 cells assessed as downregulation of NKX3-1 gene expression at 2 uM incubated for 24 hrs by RNA-Seq based analysis; type: cell-based
[11] = biological target: T1, CDK9/cyclin T1 (Homo sapiens); assay: Induction of CDK9/Cyclin T1 degradation in human 22Rv1 cells assessed as downregulation of NOTCH1 gene expression at 2 uM incubated for 24 hrs by RNA-Seq based analysis; type: cell-based
[12] = biological target: T1, CDK9/cyclin T1 (Homo sapiens); assay: Induction of CDK9/Cyclin T1 degradation in human 22Rv1 cells assessed as decrease in cyclin B1 protein expression at 3 uM measured for 36 hrs by DIA-based proteomics analysis; type: cell-based
CWR22R [13] = assay: Induction of apoptosis in human 22Rv1 cells at 0.3 to 1 uM incubated for 24 hrs by AnnexinV-FITC/PI staining based flow cytometry; type: functional, cell-based; conditions: dose 0.3-1 µM
[14] = biological target: Cyclin-dependent kinase 7 (Homo sapiens) (UniProt P50613); assay: Induction of CDK7 degradation in human 22Rv1 cells assessed as downregulation of CDK7 level at 3 uM measured after 12 hrs by DIA-based proteomics analysis; type: cell-based
[15] = biological target: T1, CDK9/cyclin T1 (Homo sapiens); assay: Induction of CDK9/Cyclin T1 degradation in human 22Rv1 cells assessed as downregulation of KLK3 protein expression at 0.3 to 3 uM incubated fo 24 hrs by immunoblot analysis; type: cell-based; conditions: dose 0.3-3 µM
[16] = biological target: T1, CDK9/cyclin T1 (Homo sapiens); assay: Induction of CDK9/Cyclin T1 degradation in human 22Rv1 cells assessed as downregulation of SLC1A5 gene expression at 2 uM incubated for 24 hrs by RNA-Seq based analysis; type: cell-based
[17] = biological target: T1, CDK9/cyclin T1 (Homo sapiens); assay: Induction of CDK9/Cyclin T1 degradation in human 22Rv1 cells assessed as decrease in cyclin A2 protein expression at 3 uM measured for 36 hrs by DIA-based proteomics analysis; type: cell-based
[18] = biological target: T1, CDK9/cyclin T1 (Homo sapiens); assay: Induction of CDK9/Cyclin T1 degradation in human 22Rv1 cells assessed as downregulation of JMJD6 protein expression at 3 uM measured after 36 hrs by DIA-based proteomics analysis; type: cell-based
[19] = biological target: T1, CDK9/cyclin T1 (Homo sapiens); assay: Induction of CDK9/Cyclin T1 degradation in human 22Rv1 cells assessed as downregulation of VIM gene expression at 2 uM incubated for 24 hrs by RNA-Seq based analysis; type: cell-based
[20] = biological target: T1, CDK9/cyclin T1 (Homo sapiens); assay: Induction of CDK9/Cyclin T1 degradation in human 22Rv1 cells assessed as downregulation of JMJD6 protein expression at 2 uM measured after 24 hrs by immunoblot analysis; type: cell-based
[21] = biological target: T1, CDK9/cyclin T1 (Homo sapiens); assay: Induction of CDK9/Cyclin T1 degradation in human 22Rv1 cells assessed as downregulation of NKX3-1 protein expression at 0.3 to 3 uM incubated fo 24 hrs by immunoblot analysis; type: cell-based; conditions: dose 0.3-3 µM
CWR22R [22] = assay: Downregulation of CDK6 level in human 22Rv1 cells at 3 uM measured after 12 hrs by DIA-based proteomics analysis; type: functional, cell-based
Cyclin-T1 [23] = biological target: T3, Cyclin-T1 (Homo sapiens, UniProt O60563); assay: Induction of HyT-mediated degradation of Cyclin T1 in human 22Rv1 cells incubated for 24 hrs by immunoblot analysis; type: cell-based
[24] = biological target: T1, CDK9/cyclin T1 (Homo sapiens); assay: Induction of CDK9/Cyclin T1 degradation in human 22Rv1 cells assessed as downregulation of AR protein expression at 0.3 to 3 uM measured after 24 hrs by immunoblot analysis; type: cell-based; conditions: dose 0.3-3 µM
[25] = biological target: T1, CDK9/cyclin T1 (Homo sapiens); assay: Induction of CDK9/Cyclin T1 degradation in human 22Rv1 cells assessed as downregulation of AR-V7 splice variant protein expression at 2 uM measured after 48 hrs by immunoblot analysis relative to control; type: cell-based
[26] = biological target: T1, CDK9/cyclin T1 (Homo sapiens); assay: Induction of CDK9/Cyclin T1 degradation in human 22Rv1 cells assessed as downregulation of c-Myc protein expression at 2 uM measured after 24 hrs by immunoblot analysis; type: cell-based
CWR22R [27] = assay: Inhibition of colony formation in human 22Rv1 cells at 100 to 200 nM treated for 14 days with replacement with fresh medium containing compound for every 48 hrs by crystal violet staining based analysis; type: functional, cell-based; conditions: dose 100-200 nM, time 14.0 day
[28] = biological target: G1/S-specific cyclin-E1 (Homo sapiens) (UniProt P24864); assay: Induction of HyT-mediated degradation of cyclin E1 in human 22Rv1 cells assessed as reduction in cyclin E1 level at 6 uM incubated for 24 hrs by immunoblot analysis; type: cell-based
[29] = biological target: T1, CDK9/cyclin T1 (Homo sapiens); assay: Induction of CDK9/Cyclin T1 degradation in human 22Rv1 cells assessed as downregulation of KLK1 gene expression at 2 uM incubated for 24 hrs by RNA-Seq based analysis; type: cell-based
CWR22R [30] = assay: Induction of cell cycle arrest in human 22Rv1 cells assessed as accumulation of cells at sub-G1 phase at 0.3 to 1 uM incubated for 24 hrs by propidium iodide staining based flow cytometry; type: functional; conditions: dose 0.3-1 µM
Cyclin-T1 [31] = biological target: T3, Cyclin-T1; assay: Induction of HA-tagged Cyclin T1 (unknown origin) polyubiquitination expressed in HEK293T cells co-transfected with Flag-tagged CDK9 and Myc ubiquitin assessed as increase in K48-linkage poly-ubiqutinated Cyclin T1 level at 1 to 2 uM incubated for 20 hrs by immunoprecipitation analysis; type: cell-based; conditions: dose 1-2 µM
[32] = biological target: T1, CDK9/cyclin T1 (Homo sapiens); assay: Induction of CDK9/Cyclin T1 degradation in human 22Rv1 cells assessed as downregulation of WNT2 gene expression at 2 uM incubated for 24 hrs by RNA-Seq based analysis; type: cell-based

T2 sequence (P50750 whole entry): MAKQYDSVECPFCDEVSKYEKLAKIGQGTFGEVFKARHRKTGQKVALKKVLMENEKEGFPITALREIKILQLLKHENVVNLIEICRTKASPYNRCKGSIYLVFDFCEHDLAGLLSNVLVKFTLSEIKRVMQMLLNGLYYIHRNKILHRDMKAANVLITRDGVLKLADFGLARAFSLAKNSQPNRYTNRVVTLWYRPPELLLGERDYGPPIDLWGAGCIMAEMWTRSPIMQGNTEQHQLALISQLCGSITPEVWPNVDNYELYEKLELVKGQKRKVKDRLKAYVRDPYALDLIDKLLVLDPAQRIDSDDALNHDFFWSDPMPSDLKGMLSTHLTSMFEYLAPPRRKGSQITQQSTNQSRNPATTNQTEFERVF
T3 sequence (O60563 whole entry): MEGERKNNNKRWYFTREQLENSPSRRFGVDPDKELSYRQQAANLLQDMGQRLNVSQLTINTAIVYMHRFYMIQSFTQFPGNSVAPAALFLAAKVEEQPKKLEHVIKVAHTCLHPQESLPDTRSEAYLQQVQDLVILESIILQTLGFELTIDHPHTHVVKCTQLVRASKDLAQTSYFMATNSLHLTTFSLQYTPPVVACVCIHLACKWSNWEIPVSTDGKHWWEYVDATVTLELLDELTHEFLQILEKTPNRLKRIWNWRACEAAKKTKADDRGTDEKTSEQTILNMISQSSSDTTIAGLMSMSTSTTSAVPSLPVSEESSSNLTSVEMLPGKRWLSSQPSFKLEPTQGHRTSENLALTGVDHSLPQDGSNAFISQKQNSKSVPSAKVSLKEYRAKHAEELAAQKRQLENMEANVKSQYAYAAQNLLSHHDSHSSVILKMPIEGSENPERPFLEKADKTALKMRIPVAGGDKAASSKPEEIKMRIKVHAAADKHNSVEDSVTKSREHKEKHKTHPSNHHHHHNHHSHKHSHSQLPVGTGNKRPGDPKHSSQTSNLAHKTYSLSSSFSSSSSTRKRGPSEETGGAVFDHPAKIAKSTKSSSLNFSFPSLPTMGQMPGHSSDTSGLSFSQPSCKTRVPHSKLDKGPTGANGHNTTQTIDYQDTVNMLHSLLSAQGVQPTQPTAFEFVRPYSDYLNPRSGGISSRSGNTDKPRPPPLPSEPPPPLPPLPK
Sequence of Glycogen synthase kinase-3 alpha (Homo sapiens) (P49840 2-483 limits assumed): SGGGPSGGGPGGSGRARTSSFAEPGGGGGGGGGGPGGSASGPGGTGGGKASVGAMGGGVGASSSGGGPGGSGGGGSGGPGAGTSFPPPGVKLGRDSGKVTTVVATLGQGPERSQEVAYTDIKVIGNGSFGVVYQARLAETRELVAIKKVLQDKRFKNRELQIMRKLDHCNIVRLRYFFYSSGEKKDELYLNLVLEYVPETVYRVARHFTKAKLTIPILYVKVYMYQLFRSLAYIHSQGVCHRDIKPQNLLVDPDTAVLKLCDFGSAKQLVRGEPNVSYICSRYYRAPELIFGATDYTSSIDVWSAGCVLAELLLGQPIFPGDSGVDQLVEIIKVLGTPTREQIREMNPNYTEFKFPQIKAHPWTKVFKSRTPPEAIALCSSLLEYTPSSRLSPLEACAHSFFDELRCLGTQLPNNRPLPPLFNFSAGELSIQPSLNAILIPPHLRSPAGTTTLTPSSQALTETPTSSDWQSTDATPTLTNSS
Sequence of G1/S-specific cyclin-E1 (Homo sapiens) (P24864 whole entry): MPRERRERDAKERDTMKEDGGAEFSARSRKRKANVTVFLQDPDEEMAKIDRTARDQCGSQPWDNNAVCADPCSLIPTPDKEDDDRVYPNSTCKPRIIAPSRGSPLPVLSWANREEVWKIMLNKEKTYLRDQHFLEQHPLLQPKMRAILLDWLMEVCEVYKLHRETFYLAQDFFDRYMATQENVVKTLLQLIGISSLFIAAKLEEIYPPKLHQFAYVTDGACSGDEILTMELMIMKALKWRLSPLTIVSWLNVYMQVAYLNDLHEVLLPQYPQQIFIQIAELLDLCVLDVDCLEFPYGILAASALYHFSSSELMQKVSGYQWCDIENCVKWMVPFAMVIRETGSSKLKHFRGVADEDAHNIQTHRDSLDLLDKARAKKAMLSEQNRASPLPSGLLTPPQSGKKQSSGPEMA
Sequence of Cyclin-dependent kinase 6 (Homo sapiens) (Q00534 whole entry): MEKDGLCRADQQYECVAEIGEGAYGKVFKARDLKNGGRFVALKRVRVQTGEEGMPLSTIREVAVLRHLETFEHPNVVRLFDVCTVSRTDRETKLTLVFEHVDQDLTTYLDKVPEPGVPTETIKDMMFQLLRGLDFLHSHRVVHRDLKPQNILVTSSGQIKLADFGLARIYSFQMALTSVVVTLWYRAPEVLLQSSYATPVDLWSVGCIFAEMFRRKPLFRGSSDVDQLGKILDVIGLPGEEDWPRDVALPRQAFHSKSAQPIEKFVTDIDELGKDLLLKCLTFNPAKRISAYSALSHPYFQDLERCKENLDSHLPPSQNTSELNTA
Sequence of Cyclin-dependent kinase 7 (Homo sapiens) (P50613 whole entry): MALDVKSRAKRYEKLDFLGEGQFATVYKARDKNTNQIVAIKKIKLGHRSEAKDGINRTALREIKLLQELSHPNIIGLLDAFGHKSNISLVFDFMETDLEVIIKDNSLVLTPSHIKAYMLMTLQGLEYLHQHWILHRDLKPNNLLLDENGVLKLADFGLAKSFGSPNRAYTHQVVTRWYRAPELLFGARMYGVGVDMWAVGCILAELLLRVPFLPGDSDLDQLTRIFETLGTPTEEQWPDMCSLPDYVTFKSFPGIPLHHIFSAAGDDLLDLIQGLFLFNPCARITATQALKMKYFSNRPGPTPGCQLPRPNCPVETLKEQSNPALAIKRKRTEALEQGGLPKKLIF

CC(C)[C@@H]1CC[C@@H](C)C[C@H]1OCC(=O)NCCS(=O)(=O)N1CCC(C(=O)Nc2ncc(SCc3ncc(C(C)(C)C)o3)s2)CC1
active: Activity [1] | Activity [2] | Activity [3] | Activity [5] | Activity [6] | Activity [7] | Activity [9] | Activity [10] | Activity [11] | Activity [12] | Activity (CWR22R [13]) | Activity [14] | Activity [15] | Activity [16] | Activity [17] | Activity [18] | Activity [19] | Activity [20] | Activity [21] | inhibition (CWR22R [22]) | Activity [24] | Activity [26] | inhibition (CWR22R [27]) | Activity [28] | Activity [29] | Activity (CWR22R [30]) | Activity (Cyclin-T1 [31]) | Activity [32]
0.662 µM: DC50 [4]
0.095 µM: IC50 (CWR22R [8])
100%: Activity [25]
0.589 µM: DC50 (Cyclin-T1 [23])
